# Laboratory results reported in patent US8772323B2, “Benzoxazole- and tetrahydrobenzoxazole-substituted pyridazinones as GPR119 agonists” (Boehringer Ingelheim International GmbH, priority 2010, dated 2014).
# Molecular target: human GPR119 (Homo sapiens (Human), UniProt Q8TDV5)
# Test: AlphaScreen cAMP assay in Min-6/hGPR119 cells (GPR119 activation, intracellular cAMP)
# Assay type: cell-based
# Conditions: MIN6 cells stably transfected with human GPR119; 45 minutes' incubation at RT; AlphaScreen cAMP Assay Kit
# Description: The compounds of formula I according to the invention are GPR119 agonists. The effect of the compounds on the activation of GPR119 and on the stimulation of intracellular cAMP concentration is determined using the AlphaScreen cAMP Assay Kit (Cat. No. #6760625R) made by PerkinElmer.
# MIN6 cells [Miyazaki J et al. Endocrinology. 1990 July; 127(1):126-32] were stably transfected with an expression vector for human GPR119 cDNA (Acc. No. NP_848566). Min-6/hGPR119 cells are cultured in DMEM, 10% FBS, 50 μM β-mercaptoethanol, 0.3 mg/mL Geniticin, 2 mM GlutaMAX at 37° C. 5% CO2. For the assay, the cells are placed in Optiplates (white, 384-well, 160W-barcoded, TC, sterile with lid, Cat. No. #6007688 (Perkin Elmer); 10000 cells/well; 50 μl). The plates covered with lids are then incubated for 24 hours at 37° C./5% CO2.
# After the medium has been sucked out of the wells completely, 10 μl of the test compound are added, the compounds are diluted beforehand with stimulating buffer (140 mM NaCl, 3.6 mM KCl, 0.5 mM NaH2PO4, 0.5 mM MgSO4, 1.5 mM CaCl2, 10 mM Hepes, 5 mM NaHCO3; pH 7.4. 0.5 mM IBMX and 0.1% BSA, the final DMSO concentration is 1%). After 45 minutes' incubation at RT, the cAMP concentrations are determined using the AlphaScreen cAMP Assay Kit (Cat. No. #6760625R from PerkinElmer).
# Sequence of human GPR119 (Q8TDV5 whole entry): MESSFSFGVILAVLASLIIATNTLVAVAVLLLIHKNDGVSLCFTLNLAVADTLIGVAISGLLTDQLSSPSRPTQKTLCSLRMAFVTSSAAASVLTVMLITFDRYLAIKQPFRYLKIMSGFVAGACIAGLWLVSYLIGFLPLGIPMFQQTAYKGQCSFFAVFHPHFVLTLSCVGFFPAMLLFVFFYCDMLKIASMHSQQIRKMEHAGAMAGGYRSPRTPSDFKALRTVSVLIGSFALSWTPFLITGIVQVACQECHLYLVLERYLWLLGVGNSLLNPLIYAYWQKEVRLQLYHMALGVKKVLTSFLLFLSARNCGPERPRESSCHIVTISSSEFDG
row,EC50 [nM],Compound
1,660,"C[C@H]1CC(=O)NN=C1c1ccc2nc(-c3ccccc3)oc2c1 [Example 1, (S)-5-methyl-6-(2-phenyl-benzoxazol-6-yl)-4,5-dihydro-2H-pyridazin-3-one]"
2,787,"C[C@H]1CC(c2ccc3nc(-c4ccccc4)oc3c2)=NNC1=O [Example 2, (S)-4-methyl-6-(2-phenyl-benzoxazol-6-yl)-4,5-dihydro-2H-pyridazin-3-one]"
3,82,"C[C@@H]1CC(=O)NN=C1c1ccc2nc(-c3ccccc3)oc2c1 [Example 3, (R)-5-methyl-6-(2-phenyl-benzoxazol-6-yl)-4,5-dihydro-2H-pyridazin-3-one]"
4,596,"C[C@@H]1CC(c2ccc3nc(-c4ccccc4)oc3c2)=NNC1=O [Example 4, (R)-4-methyl-6-(2-phenyl-benzoxazol-6-yl)-4,5-dihydro-2H-pyridazin-3-one]"
5,243,"O=C1NN=C(c2ccc3nc(-c4ccccc4)oc3c2)C2CC12 (stereo not drawn) [Example 5, 5-(2-phenyl-benzoxazol-6-yl)-3,4-diaza-bicyclo[4.1.0]hept-4-en-2-one]"
6,1700,"Cc1c(C2=NNC(=O)C3CC23)ccc2nc(-c3ccccc3)oc12 (stereo not drawn) [Example 6, 5-(7-methyl-2-phenyl-benzoxazol-6-yl)-3,4-diaza-bicyclo[4.1.0]hept-4-en-2-one]"
7,892,"C=CCC1CC(c2ccc3nc(-c4ccccc4)oc3c2)=NNC1=O (stereo not drawn) [Example 7, 4-allyl-6-(2-phenyl-benzoxazol-6-yl)-4,5-dihydro-2H-pyridazin-3-one]"
8,874,"CCCC1CC(=O)NN=C1c1ccc2nc(-c3ccccc3)oc2c1 (stereo not drawn) [Example 8, 6-(2-phenyl-benzoxazol-6-yl)-5-propyl-4,5-dihydro-2H-pyridazin-3-one]"
9,834,"CCCC1CC(c2ccc3nc(-c4ccccc4)oc3c2)=NNC1=O (stereo not drawn) [Example 9, 6-(2-phenyl-benzoxazol-6-yl)-4-propyl-4,5-dihydro-2H-pyridazin-3-one]"
10,365,"O=C1NN=C(c2ccc3nc(-c4ccccc4)oc3c2)C2CCC12 (stereo not drawn) [Example 10, 5-(2-phenyl-benzoxazol-6-yl)-3,4-diaza-bicyclo[4.2.0]oct-4-en-2-one]"
11,> 10000,"Cc1cc(C2=NNC(=O)C3CC23)cc2oc(-c3ccccc3)nc12 (stereo not drawn) [Example 11, 5-(4-methyl-2-phenyl-benzoxazol-6-yl)-3,4-diaza-bicyclo[4.1.0]hept-4-en-2-one]"
12,246,"Cc1cccc(-c2nc3ccc(C4=NNC(=O)C5CC45)cc3o2)c1 (stereo not drawn) [Example 12, 5-(2-m-tolyl-benzoxazol-6-yl)-3,4-diaza-bicyclo[4.1.0]hept-4-en-2-one]"
13,153,"Cc1ccc(-c2nc3ccc(C4=NNC(=O)C5CC45)cc3o2)cc1 (stereo not drawn) [Example 13, 5-(2-p-tolyl-benzoxazol-6-yl)-3,4-diaza-bicyclo[4.1.0]hept-4-en-2-one]"
14,264,"Cc1ccc(-c2nc3ccc(C4=NNC(=O)C5CC45)cc3o2)cc1C (stereo not drawn) [Example 14, 5-[2-(3,4-dimethyl-phenyl)-benzoxazol-6-yl]-3,4-diaza-bicyclo[4.1.0]hept-4-en-2-one]"
15,701,"O=C1NN=C(c2ccc3nc(-c4ccc(CN5CCCCC5)cc4)oc3c2)C2CC12 (stereo not drawn) [Example 15, 5-[2-(4-piperidin-1-ylmethyl-phenyl)-benoxazol-6-yl]-3,4-diaza-bicyclo[4.1.0]hept-4-en-2-one]"
16,314,"O=C1CCC(c2ccc3nc(-c4ccccc4)oc3c2)=NN1 [Example 16, 6-(2-phenyl-benzoxazol-6-yl)-4,5-dihydro-2H-pyridazin-3-one]"
17,223,"O=C1NN=C(c2ccc3nc(-c4cccc(F)c4)oc3c2)C2CC12 (stereo not drawn) [Example 17, 5-[2-(3-fluoro-phenyl)-benzoxazol-6-yl]-3,4-diaza-bicyclo[4.1.0]hept-4-en-2-one]"
18,153,"O=C1NN=C(c2ccc3nc(-c4ccc(F)cc4)oc3c2)C2CC12 (stereo not drawn) [Example 18, 5-[2-(4-fluoro-phenyl)-benzoxazol-6-yl]-3,4-diaza-bicyclo[4.1.0]hept-4-en-2-one]"
19,469,"O=C1NN=C(c2ccc3nc(-c4ccc(F)cc4)oc3c2)C2CCC12 (stereo not drawn) [Example 19, 5-[2-(4-fluoro-phenyl)-benzoxazol-6-yl]-3,4-diaza-bicyclo[4.2.0]oct-4-en-2-one]"
20,157,"O=C1NN=C(c2ccc3nc(-c4ccccc4F)oc3c2)C2CC12 (stereo not drawn) [Example 20, 5-[2-(2-fluoro-phenyl)-benzoxazol-6-yl]-3,4-diaza-bicyclo[4.1.0]hept-4-en-2-one]"

row,EC50 [nM],Compound
1,> 10000,"CC1(C)CC(c2ccc3nc(-c4ccccc4)oc3c2)=NNC1=O [Example 21, 4.4-dimethyl-6-(2-phenyl-benzoxazol-6-yl)-4,5-dihydro-2H-pyridazin-3-one]"
2,1750,"O=C1NN=C(c2ccc3nc(-c4ccc(CN5CCOCC5)cc4)oc3c2)C2CC12 (stereo not drawn) [Example 22, 5-[2-(4-morpholin-4-ylmethyl-phenyl)-benzoxazol-6-yl]-3,4-diaza-bicyclo[4.1.0]hept-4-en-2-one]"
3,1350,"CC(C)(C)OC(=O)N1CCN(Cc2ccc(-c3nc4ccc(C5=NNC(=O)C6CC56)cc4o3)cc2)CC1 (stereo not drawn) [Example 23, tert.butyl 4-{4-[6-(5-oxo-3,4-diaza-bicyclo[4.1.0]hept-2-en-2-yl)-benzoxazol-2-yl]-benzyl}-piperazine-1-carboxylate]"
4,5100,"Cc1ccc(-c2nc3ccc(C4=NNC(=O)[C@@H](C)[C@H]4C)cc3o2)s1 [Example 24, (4S,5R)-4,5-dimethyl-6-[2-(5-methyl-thiophen-2-yl)-benzoxazol-6-yl]-4,5-dihydro-2H-pyridazin-3-one]"
5,2370,"C[C@@H]1C(c2ccc3nc(-c4ccccc4)oc3c2)=NNC(=O)[C@@H]1C [Example 25, (4R,5S)-4,5-dimethyl-6-(2-phenyl-benzoxazol-6-yl)-4,5-dihydro-2H-pyridazin-3-one]"
6,166,"C[C@@H]1C(=O)NN=C(c2ccc3nc(-c4ccccc4)oc3c2)[C@H]1C [Example 26, (4S,5S)-4,5-dimethyl-6-(2-phenyl-benzoxazol-6-yl)-4,5-dihydro-2H-pyridazin-3-one]"
7,444,"CO[C@@H]1CC(=O)NN=C1c1ccc2nc(-c3ccccc3)oc2c1 [Example 27, (R)-5-methoxy-6-(2-phenyl-benzoxazol-6-yl)-4,5-dihydro-2H-pyridazin-3-one]"
8,213,"CO[C@H]1CC(=O)NN=C1c1ccc2nc(-c3ccccc3)oc2c1 [Example 28, (5S)-5-methoxy-6-(2-phenyl-1,3-benzoxazol-6-yl)-2,3,4,5-tetrahydropyridazin-3-one]"
9,181,"CCC1CC(=O)NN=C1c1ccc2nc(-c3ccccc3)oc2c1 (stereo not drawn) [Example 29, 5-ethyl-6-(2-phenyl-benzoxazol-6-yl)-4,5-dihydro-2H-pyridazin-3-one]"
10,66,"CC[C@@H]1CC(=O)NN=C1c1ccc2nc(-c3ccccc3)oc2c1 [Example 31, (R)-5-ethyl-6-(2-phenyl-benzoxazol-6-yl)-4,5-dihydro-2H-pyridazin-3-one]"
11,869,"CC(C)C1CC(=O)NN=C1c1ccc2nc(-c3ccccc3)oc2c1 (stereo not drawn) [Example 32, 5-isopropyl-6-(2-phenyl-benzoxazol-6-yl)-4,5-dihydro-2H-pyridazin-3-one]"
12,70,"CCC1CC(=O)NN=C1c1ccc2nc(-c3ccc(OCc4ccccc4)cc3)oc2c1 (stereo not drawn) [Example 33, 6-[2-(4-benzyloxy-phenyl)-benzoxazol-6-yl]-5-ethyl-4,5-dihydro-2H-pyridazin-3-one]"
13,193,"CC1CC(=O)NN=C1c1ccc2nc(-c3cccc(OCc4ccccc4)c3)oc2c1 (stereo not drawn) [Example 34, 6-[2-(3-benzyloxy-phenyl)-benzoxazol-6-yl]-5-methyl-4,5-dihydro-2H-pyridazin-3-one]"
14,148,"CCC1CC(=O)NN=C1c1ccc2nc(-c3cccc(OCc4ccccc4)c3)oc2c1 (stereo not drawn) [Example 35, 6-[2-(3-benzyloxy-phenyl)-benzoxazol-6-yl]-5-ethyl-4,5-dihydro-2H-pyridazin-3-one]"
15,58,"CC1CC(=O)NN=C1c1ccc2nc(-c3ccc(OCc4ccccc4)cc3)oc2c1 (stereo not drawn) [Example 36, 6-[2-(4-benzyloxy-phenyl)-benzoxazol-6-yl]-5-methyl-4,5-dihydro-2H-pyridazin-3-one]"
16,636,"CCC1CC(=O)NN=C1c1ccc2nc(-c3ccc(O)cc3)oc2c1 (stereo not drawn) [Example 37, 5-ethyl-6-[2-(4-hydroxy-phenyl)-benzoxazol-6-yl]-4,5-dihydro-2H-pyridazin-3-one]"
17,890,"CC1CC(=O)NN=C1c1ccc2nc(-c3cccc(O)c3)oc2c1 (stereo not drawn) [Example 38, 6-[2-(3-hydroxy-phenyl)-benzoxazol-6-yl]-5-methyl-4,5-dihydro-2H-pyridazin-3-one]"
18,329,"CCC1CC(=O)NN=C1c1ccc2nc(-c3cccc(O)c3)oc2c1 (stereo not drawn) [Example 39, 6-[2-(3-hydroxy-phenyl)-benzoxazol-6-yl]-5-ethyl-4,5-dihydro-2H-pyridazin-3-one]"
19,275,"CCC1CC(=O)NN=C1c1ccc2nc(-c3ccc(OCc4ncccn4)cc3)oc2c1 (stereo not drawn) [Example 40, 5-ethyl-6-{2-[4-(pyrimidin-2-ylmethoxy)-phenyl]-benzoxazol-6-yl}-4,5-dihydro-2H-pyridazin-3-one]"
